Test results as given in PubChem BioAssay AID1845196 (Molecular Pharmacology Branch, DTP, NCI, 2023).
Several values for one entry are separate records, joined by “and”; a condition that tells them apart may be missing. Equal values may be shown once.

System: 292921-168-R tumor spheroid viability
Assay: Anticancer human tumor 292921-168-R patient-derived pancreatic carcinoma cell line growth inhibition
Settings: spheroids with HUVEC and MSC; for viability, T/C: stronger effect = lower value
How it was run: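 Complex spheroids of malignant cells with endothelial cells and mesenchymal stem cells; agents alone or combined, from near clinical Cmax (or 10 microM if unknown) down in half-log steps, 0.25% DMSO final.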

[1] = curve of first compound, second compound 0.003 µM
[2] = second compound 0.003 µM, first compound 0.0316 µM
[3] = second compound 0.003 µM, first compound 0.1 µM
[4] = second compound 0.003 µM, first compound 0.316 µM
[5] = second compound 0.003 µM, first compound 1 µM
[6] = second compound 0.003 µM, first compound 3.16 µM
[7] = second compound 0.003 µM, first compound 10 µM
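Further: spheroids exposed to compounds for 7 days.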

What does the source list for `COc1ccc([C@@H](O)c2cc(-c3ncnc4cc(N5CCOCC5)ccc34)c(F)cc2Cl)nn1` + CC[C@@]1(O)C(=O)OCc2c1cc1n(c2=O)Cc2cc3c(CN(C)C)c(O)ccc3nc2-1?
IC50 [1]: 1350 nM; IC50 (curve of first compound, second compound 0.00949 µM): 974 nM; IC50 (curve of first compound, second compound 0.03 µM): < 31.6 nM; IC50 (curve of first compound, second compound 0.0949 µM): < 31.6 nM; IC50 (curve of first compound, second compound 0.3 µM): < 31.6 nM; viability, T/C [2]: 102%; viability, T/C [3]: 94.4%; viability, T/C [4]: 77.8%; viability, T/C [5]: 55.3%; viability, T/C [6]: 34.8%; viability, T/C [7]: 20.8%; viability, T/C (second compound 0.00949 µM, first compound 0.0316 µM): 77.5%; viability, T/C (second compound 0.00949 µM, first compound 0.1 µM): 74.5%; viability, T/C (second compound 0.00949 µM, first compound 0.316 µM): 71.9%; viability, T/C (second compound 0.00949 µM, first compound 1 µM): 45.6%; viability, T/C (second compound 0.00949 µM, first compound 3.16 µM): 32.9%; viability, T/C (second compound 0.00949 µM, first compound 10 µM): 17.9%; viability, T/C (second compound 0.03 µM, first compound 0.0316 µM): 41.8%; viability, T/C (second compound 0.03 µM, first compound 0.1 µM): 38.7%; viability, T/C (second compound 0.03 µM, first compound 0.316 µM): 34.5%; viability, T/C (second compound 0.03 µM, first compound 1 µM): 25.8%; viability, T/C (second compound 0.03 µM, first compound 3.16 µM): 21.5%; viability, T/C (second compound 0.03 µM, first compound 10 µM): 17.1%; viability, T/C (second compound 0.0949 µM, first compound 0.0316 µM): 10.8%; viability, T/C (second compound 0.0949 µM, first compound 0.1 µM): 12%; viability, T/C (second compound 0.0949 µM, first compound 0.316 µM): 12.5%; viability, T/C (second compound 0.0949 µM, first compound 1 µM): 13.2%; viability, T/C (second compound 0.0949 µM, first compound 3.16 µM): 14.5%; viability, T/C (second compound 0.0949 µM, first compound 10 µM): 13.8%; viability, T/C (second compound 0.3 µM, first compound 0.0316 µM): 3.98%; viability, T/C (second compound 0.3 µM, first compound 0.1 µM): 3.78%; viability, T/C (second compound 0.3 µM, first compound 0.316 µM): 4.06%; viability, T/C (second compound 0.3 µM, first compound 1 µM): 4.72%; viability, T/C (second compound 0.3 µM, first compound 3.16 µM): 6.62%; viability, T/C (second compound 0.3 µM, first compound 10 µM): 8.28%

For `Cn1ncnc1[C@H]1c2n[nH]c(=O)c3cc(F)cc(c23)N[C@@H]1c1ccc(F)cc1`, which viability, T/C (compound 0.00949 µM) is on record?
Its viability, T/C is 101% and 87.5% and 95.8%.

What about the viability, T/C (compound 0.03 µM) of the same compound?
Its viability, T/C is 93.7% and 83.1% and 93%.

And the viability, T/C (compound 0.0949 µM)?
The viability, T/C was 87.9% and 81.8% and 80.5%.

What about the viability, T/C (compound 0.3 µM) of the same compound?
Its viability, T/C is 68.6% and 62.7% and 63.2%.

And the viability, T/C (compound 0.949 µM)?
Its viability, T/C is 41.3% and 36.9% and 46%.

What about the viability, T/C (compound 3 µM) of the same compound?
The viability, T/C was 14% (2×) and 11.2%.

What about the IC50 (curve of compound) of the same compound?
The IC50 was 661 nM and 537 nM and 692 nM.

Which results are given for `[2H]c1nc(C)nc([2H])c1-c1cc(NC[C@@H](C)c2cccc3c(C(=O)NC)ccnc23)ncn1` + COc1cc2c(cc1O)CCNC21CSC2c3c(OC(C)=O)c(C)c4c(c3C(COC1=O)N1C(O)C3Cc5cc(C)c(OC)c(O)c5C(C21)N3C)OCO4?
IC50 (curve of first compound, second compound 30 pM): > 10000 nM; IC50 (curve of first compound, second compound 94.9 pM): > 10000 nM; IC50 (curve of first compound, second compound 0.0003 µM): < 31.6 nM; IC50 (curve of first compound, second compound 0.000949 µM): < 31.6 nM; IC50 [1]: < 31.6 nM; viability, T/C (second compound 30 pM, first compound 0.0316 µM): 108%; viability, T/C (second compound 30 pM, first compound 0.1 µM): 99.4%; viability, T/C (second compound 30 pM, first compound 0.316 µM): 99.7%; viability, T/C (second compound 30 pM, first compound 1 µM): 117%; viability, T/C (second compound 30 pM, first compound 3.16 µM): 105%; viability, T/C (second compound 30 pM, first compound 10 µM): 103%; viability, T/C (second compound 94.9 pM, first compound 0.0316 µM): 99.2%; viability, T/C (second compound 94.9 pM, first compound 0.1 µM): 102%; viability, T/C (second compound 94.9 pM, first compound 0.316 µM): 104%; viability, T/C (second compound 94.9 pM, first compound 1 µM): 106%; viability, T/C (second compound 94.9 pM, first compound 3.16 µM): 101%; viability, T/C (second compound 94.9 pM, first compound 10 µM): 99.8%; viability, T/C (second compound 0.0003 µM, first compound 0.0316 µM): 37.5%; viability, T/C (second compound 0.0003 µM, first compound 0.1 µM): 58.4%; viability, T/C (second compound 0.0003 µM, first compound 0.316 µM): 52.1%; viability, T/C (second compound 0.0003 µM, first compound 1 µM): 48.2%; viability, T/C (second compound 0.0003 µM, first compound 3.16 µM): 46%; viability, T/C (second compound 0.0003 µM, first compound 10 µM): 41%; viability, T/C (second compound 0.000949 µM, first compound 0.0316 µM): 4.08%; viability, T/C (second compound 0.000949 µM, first compound 0.1 µM): 3.23%; viability, T/C (second compound 0.000949 µM, first compound 0.316 µM): 4.22%; viability, T/C (second compound 0.000949 µM, first compound 1 µM): 2.93%; viability, T/C (second compound 0.000949 µM, first compound 3.16 µM): 3.26%; viability, T/C (second compound 0.000949 µM, first compound 10 µM): 2.21%; viability, T/C [2]: 0.18%; viability, T/C [3]: 0.19%; viability, T/C [4]: 0.19%; viability, T/C [5]: 0.18%; viability, T/C [6]: 0.19%; viability, T/C [7]: 0.34%
